The values that follow come from ChEMBL document CHEMBL1201862, “PubChem BioAssay data set” (2004).

Among the test systems are SK-MEL-28; HL-60; SNB-75; CCRF-CEM; SK-MEL-5; RXF 393; HCT-116; IGROV-1; M14; MOLT-4; OVCAR-5; SF-295; COLO 205; SR; SNB-78; UACC-62.
Holding throughout (test): inhibition of tumour cell growth, NCI panel, 48 h

Each structure is given as a SMILES string.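 Cultured in 96-well plates, cells were exposed to test compound for 48 hours across five concentrations. Abbreviation: GI50, concentration required for 50% inhibition of growth.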 The source made the active and inactive calls. Cut-off read from the data, not from the text of the source: active = GI50 up to about 1.1 µM and inactive = higher.

In the case of `CC(C)(CCl)NC(=O)c1cccc(C(=O)NC(C)(C)CCl)n1`, the GI50 in the assay on SK-MEL-28 was > 100 µM (inactive); in the assay with HL-60 it was > 100 µM (inactive); with SNB-75, 92.3 µM (inactive); in the assay on CCRF-CEM, > 100 µM (inactive); in the assay with SK-MEL-5, > 100 µM (inactive); with RXF 393, > 100 µM (inactive). In addition, the GI50 with HCT-116, in the assay on IGROV-1, in the assay with M14, in the assay with MOLT-4, in the assay on OVCAR-5 and in the assay on SF-295 was > 100 µM (inactive) throughout. Further, the GI50 in the assay with COLO 205, with SR and in the assay with SNB-78 was > 100 µM (inactive) throughout.

For `O=C(CCC(=O)N/N=C/c1ccccc1O)N/N=C/c1ccccc1O`, the GI50 in the assay with SK-MEL-28 is 41.1 µM (inactive); with SNB-75, 12.9 µM (inactive); in the assay with SK-MEL-5 it was > 100 µM (inactive); in the assay on RXF 393 it was 16 µM (inactive); in the assay on HCT-116, 80.7 µM (inactive); in the assay with IGROV-1 it was 33.9 µM (inactive). In addition, the GI50 was 41.8 µM (inactive) in the assay with UACC-62; > 100 µM (inactive) in the assay with MOLT-4; > 100 µM (inactive) with OVCAR-5; 32.5 µM (inactive) in the assay on SF-295; > 100 µM (inactive) with COLO 205; > 100 µM (inactive) with SR. Further, the GI50 in the assay with SNB-78 is 51.3 µM (inactive).

Turning to `CN(C)CCNC(=O)c1cccc2cc3c(Cl)cccc3nc12`, the GI50 in the assay with SK-MEL-28 is 2.15 µM (inactive); with SNB-75 it was 1.97 µM (inactive); in the assay with SK-MEL-5, 1.71 µM (inactive); with RXF 393, 1.7 µM (inactive); with HCT-116 it was 0.601 µM (active); with IGROV-1 it was 1.2 µM (inactive). Moreover, the GI50 is 1.69 µM (inactive) in the assay on UACC-62; 2.12 µM (inactive) in the assay on M14; 0.22 µM (active) in the assay on MOLT-4; 2.61 µM (inactive) in the assay on OVCAR-5; 1.01 µM (active) in the assay on COLO 205; 0.308 µM (active) in the assay on SR. In the assay on SNB-78, the GI50 is 2.11 µM (inactive).

Turning to `CC(=O)OC12/C(=N/O)CCCCCC1c1ccccc12` (stereo not drawn), the GI50 with SK-MEL-28 is > 100 µM (inactive); in the assay with HL-60, 64.3 µM (inactive); in the assay with SNB-75 it was 42.8 µM (inactive); in the assay with CCRF-CEM it was 26.4 µM (inactive); with SK-MEL-5, > 100 µM (inactive); in the assay on RXF 393, 29.6 µM (inactive). Moreover, the GI50 in the assay with HCT-116 was 84.7 µM (inactive); in the assay on UACC-62 it was 95.5 µM (inactive); with MOLT-4 it was 25.4 µM (inactive); with SF-295, 96.8 µM (inactive); with COLO 205 it was > 100 µM (inactive); with SR it was 30.4 µM (inactive). Further, the GI50 with SNB-78 was 36.3 µM (inactive).

`CC1=C(C)C(=O)c2c(cc3ccccn23)C1=O`: the GI50 with SK-MEL-28 is 19 µM (inactive); in the assay on HL-60, 17.4 µM (inactive); in the assay on SNB-75, 26.4 µM (inactive); with CCRF-CEM it was 27 µM (inactive); with SK-MEL-5, 10.4 µM (inactive); in the assay with RXF 393 it was 14.7 µM (inactive). The GI50 with IGROV-1 is 24.5 µM (inactive); in the assay on UACC-62 it was 15.6 µM (inactive); in the assay on M14, 14.2 µM (inactive); in the assay on MOLT-4 it was 24.2 µM (inactive); in the assay with OVCAR-5 it was 45.6 µM (inactive); in the assay with SF-295, 17.1 µM (inactive). Also, the results for the GI50 with COLO 205, in the assay with SR and in the assay on SNB-78 were 20.3 µM (inactive), 23.3 µM (inactive) and 23.1 µM (inactive), respectively.

Consider `Nc1ccc(C2=N/C(=C\c3cccc(N)c3)C(=O)O2)cc1`, for which the GI50 in the assay on SK-MEL-28 is > 100 µM (inactive); in the assay with HL-60, 57.5 µM (inactive); with CCRF-CEM it was 67.3 µM (inactive); in the assay on SK-MEL-5, > 100 µM (inactive); with RXF 393, > 100 µM (inactive); with IGROV-1 it was > 100 µM (inactive). The GI50 in the assay on UACC-62, in the assay on M14, in the assay with MOLT-4, in the assay with OVCAR-5, in the assay on SF-295 and in the assay on COLO 205 was > 100 µM (inactive) throughout. The GI50 with SR and in the assay on SNB-78 was > 100 µM (inactive) in each case.
